Measured values from patent US6410249B1, “Odorant receptors” (priority 1999, dated 2002).
pKd, pKi: −log10 of the molar value. Where two headings read alike, the source gives them in different places.

Legend:
receptor 5.24 [1] = biological target: T1, receptor 5.24 (Carassius auratus, UniProt Q9PW88); assay: biochemical; format: binding
T1 construct: The receptor 5.24 full length cDNA detects 1-2 bands in genomic DNA blots; expressed in transfected cells; host or cells: HEK 293 cells expressing SV40 large T antigen (293-TSA)
T1 sequence (Q9PW88 25-877): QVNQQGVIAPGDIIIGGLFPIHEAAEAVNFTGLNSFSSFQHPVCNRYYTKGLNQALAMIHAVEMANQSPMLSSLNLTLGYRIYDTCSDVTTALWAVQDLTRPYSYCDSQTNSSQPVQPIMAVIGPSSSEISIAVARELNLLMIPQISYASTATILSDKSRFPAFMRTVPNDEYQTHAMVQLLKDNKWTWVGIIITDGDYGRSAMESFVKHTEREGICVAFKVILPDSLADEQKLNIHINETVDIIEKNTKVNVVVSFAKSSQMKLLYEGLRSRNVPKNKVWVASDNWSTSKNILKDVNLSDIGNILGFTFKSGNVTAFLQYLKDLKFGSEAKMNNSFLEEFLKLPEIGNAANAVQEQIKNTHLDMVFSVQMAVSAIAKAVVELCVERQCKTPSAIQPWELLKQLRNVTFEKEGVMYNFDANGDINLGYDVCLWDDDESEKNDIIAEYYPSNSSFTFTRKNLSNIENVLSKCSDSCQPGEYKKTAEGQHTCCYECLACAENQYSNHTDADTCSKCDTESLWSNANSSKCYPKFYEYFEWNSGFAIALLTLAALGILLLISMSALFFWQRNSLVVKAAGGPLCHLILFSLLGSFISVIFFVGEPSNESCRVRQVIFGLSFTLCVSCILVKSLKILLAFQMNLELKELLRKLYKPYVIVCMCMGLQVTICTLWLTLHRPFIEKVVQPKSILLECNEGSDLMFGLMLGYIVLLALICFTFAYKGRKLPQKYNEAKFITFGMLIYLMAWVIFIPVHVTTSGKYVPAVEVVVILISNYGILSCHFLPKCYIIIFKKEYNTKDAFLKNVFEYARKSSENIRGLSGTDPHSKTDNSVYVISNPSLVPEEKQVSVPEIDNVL
Method: Structure-Activity Properties of Compounds Interacting with the Cloned Goldfish Amino Acid Odorant Receptor. An understanding of how odorant receptors are used to encode olfactory information requires a characterization of the odorant specificities of individual receptor types. We therefore wished to determine the relative specificity of receptor 5.24 for structurally related ligands. […] Briefly, 3H-arginine binding to membranes from receptor 5.24-expressing HEK 293 cells was assayed in the absence or presence of varying concentrations of competitor ligands.
(§1) Mammalian Cell Culture and DNA Transfections. For cell transfections, the receptor 5.24 cDNA insert was subcloned into two expression vectors: CMVI, which utilizes a human cytomegalovirus (CMV) immediate early promoter-enhancer plus the CMV intron A sequence to drive expression, and 608RX-2.2L, which is similar to CMVI except the cDNA insert is followed by an internal ribosome entry site (IRES)—enhanced green fluorescent protein (EGFP) coding sequence; 608RX-2.2L also contains a puromycin resistance gene. For transient assays, HEK 293 cells expressing the SV40 large T antigen (293 TSA cells) were transfected with the CMVI-receptor 5.24 or CMVI control plasmid using lipofectamine (Life Technologies) and harvested at 48 hours for membrane preparations. For stable cell lines, 293-TSA cells were transfected with the 608RX-2.2L-receptor 5.24 plasmid or a control 608RX-2.2L plasmid and selected in puromycin. Colonies showing high levels of EGFP fluorescence (as judged by epifluorescence microscopy) were picked, expanded, and screened for 3H-L-arginine binding (see below).
(§2) Membrane Preparations and Ligand Binding Assays. Membranes for ligand binding assays were prepared by washing confluent cells three times with phosphate buffered saline (PBS), detaching cells with a PBS-based enzyme-free dissociation solution, and resuspending cells in ice-cold 5.0 mM Hepes, pH 7.4, 1.0 mM EDTA, 1.0 μg/ml leupeptin, 0.5 mM PMSF. All subsequent manipulations were performed on ice. After a 30 min incubation, the cell suspension was homogenized and centrifuged at 100,000×g for 30 min. Cell membrane pellets were washed twice by resuspension and centrifugation in binding buffer (20 mM Hepes, pH 7.4, 1.0 mM EDTA, 2.0 mM MgCl2, 1.0 μg/ml leupeptin, 0.5 mM PMSF), resuspended in binding buffer, and frozen at −80° C.
Saturation binding assays were performed using 20-25 μg of membrane protein in a final volume of 100 μl binding buffer and increasing concentrations of [2,3-3H] L-arginine (specific activity=40 Ci/mmol; Dupont NEN). Non-specific binding was measured in the presence of 500 μM unlabeled L-arginine. Competition assays were performed with 500 nM [2,3-3H] L-arginine and increasing concentrations of competitor ligands. All incubations were performed at 4° C. for 60 min and terminated by rapid filtration through Whatman GF/C filters pretreated with ice cold 0.1% polyethyleneimine. Filters were washed three times with 4.0 ml ice cold 20 mM Hepes, pH 7.4, and retained radioactivity was measured by scintillation counting.

receptor 5.24 [2] = biological target: T1, receptor 5.24; assay: evoked currents in Xenopus oocytes expressing receptor 5.24 (two-electrode voltage clamp); format: cell-based, goldfish
Excerpt: Identification by Expression Cloning of a cDNA Encoding a Goldfish Odorant Receptor. RNA was synthesized from pools of goldfish olfactory cDNA clones (900 individual clones per pool) and injected into Xenopus oocytes together with synthetic RNAs encoding GIRK and Gaolf. Oocytes were then screened for responses upon exposure to odorant cocktails containing amino acids, bile acids, or sex pheromones. […] The response to amino acids was biphasic, beginning with an oscillating inward current above the basal inward K+ current, followed by a decline in inward current to below the basal level. Such a biphasic effect is thought to be caused by Gaq-mediated activation of phospholipase C (responsible for the intial inward current via IP3) and protein kinase C (leading to suppression of the K+ current through phosphorylation of GIRK channel subunits) (Sharon et al., 1997).
Iterative subdivision of pool 19 by sib-selection allowed the isolation of a single clone encoding a receptor, designated receptor 5.24.
Oocytes were removed from anesthetized Xenopus laevis and treated with collagenase. Forty nanograms of cRNA from each cDNA library pool (˜40 pg cRNA/clone) was injected per oocyte, together with cRNAs encoding Gaolf and the GIRK subunits Kir 3.1 and Kir 3.4 (˜30 pg each). Approximately 30 pools were assayed before these primary screens were halted. Injected oocytes were incubated at 17° C. for over 80 hours prior to electrophysiological recordings. Recordings were performed by two-electrode voltage clamping using an Axoclamp-2A amplifier (Axon Instruments) or a Dagan CA-1 amplifier (Dagan Corp.). Data acquisition and analysis were performed using pCLAMP software (Axon Instruments). Membrane potential was held at −80 mV. For trials involving GIRK, oocytes were first perfused with Na-MBSH (88 mM NaCl, 1 mM KCl, 2.4 mM NaHCO3, 10 mM Hepes, pH 7.5, 0.82 mM MgSO4[7H2O], 0.33 mM Ca[NO3]2[4H2O], 0.41 mM CaCl2[2H2O]), and then switched into K-MBSH, which contains elevated K+ (88 mM KCl, 1 mM NaCl) until the basal current had stabilized (˜45 seconds) before challenging with agonist. Recordings on oocytes injected with receptor 5.24 in the absence of Gaolf and/or GIRK subunits were performed in Na-MBSH. Oocytes were exposed to solutions containing different agonists by switching bathing solutions with an 8 channel valve (Hamilton).

salmon olfactory neurons = conditions: 0.01-10 μM, isolated salmon olfactory neurons; cited from earlier work
[3] = tested on: goldfish olfactory neurons; assay: multi-unit recordings from the goldfish olfactory epithelium; format: cell-based; conditions: 0.1 μM
receptor 5.24 [4] = biological target: T1, receptor 5.24; assay: 3H-L-arginine saturation binding to membranes of receptor 5.24-expressing HEK 293 cells; design: species or system goldfish; conditions: summary statement; read-out: Kd (high affinity interaction)
Excerpt: High-Affinity Binding of Radiolabeled L-Arginine to the Cloned Goldfish Odorant Receptor. To determine the affinity of the cloned goldfish amino acid receptor for basic amino acids, we characterized the ligand-receptor interaction by radiolabeled ligand binding to receptors expressed in mammalian cells. Human embryonic kidney (HEK) 293 cells were transfected with expression plasmids containing the receptor 5.24 cDNA insert. […] We next wished to determine what second messenger pathway receptor 5.24 couples to in HEK 293 cells. Control cells or cells expressing receptor 5.24 were exposed to varying concentrations of arginine and assayed for the accumulation of IP3 and cAMP.
as §1, with “below). In five independent receptor 5.24-transfected stable cell lines, receptor densities (Rt) varied between 0.5 and 6.0 pmol L-arginine binding sites/mg membrane protein. […] All competition binding assays and signal transduction studies were performed using the stable cell line 5.24-20 (Rt=2.0 pmol /mg) and a control cell line (2.2-9) stably transfected with vector alone (Rt=0.03 pmol/mg).” for “below).”
as §2
Saturation binding assays were performed using 20-25 μg of membrane protein in a final volume of 100 μl binding buffer and increasing concentrations of [2,3-3H] L-arginine (specific activity=40 Ci/mmol; Dupont NEN). Non-specific binding was measured in the presence of 500 μM unlabeled L-arginine. Competition assays were performed with 500 nM [2,3-3H] […] Filters were washed three times with 4.0 ml ice cold 20 mM Hepes, pH 7.4, and retained radioactivity was measured by scintillation counting. […] Data were analyzed by nonlinear curve fitting using Origin software (Microcal). […]

SMILES: N[C@@H](CO)C(=O)O [L-Serine]
- pKi (receptor 5.24 [1]; displacement of 3H-L-arginine from membranes of HEK 293 cells expressing receptor 5.24, read-out: Ki (binding affinity)): 5.55
- activation of receptor 5.24 (evoked currents), in words (receptor 5.24 [2]): smaller responses
- fraction of cells sensitive (salmon olfactory neurons): ~60%

SMILES: CCCCCC(=O)/C=C/[C@@H]1[C@@H](C/C=C\CCCC(=O)O)[C@@H](O)C[C@H]1O [1 5-ketoprostaglandin F2a]
- locations that responded [3]: 25 out of 65

SMILES: NCCCC[C@H](N)C(=O)O [L-Lysine]
- pKi (receptor 5.24 [1]): 7.05
- binding to receptor 5.24, in words (receptor 5.24 [1]; comparative binding studies): highest affinities
- pKd (receptor 5.24 [4]): ~7.00
